Columns and labels:
[1] = test system: normal PBMC; settings: glycyrrhizin alone; cited from earlier work
[2] = test system: peripheral blood mononuclear cells (PBMC); assay: IFN-γ secretion by PBMC incubated 72 h with Immune+™ with or without PHA, ELISA (Example 2); type: cell-based, human; settings: PHA alone, 10 μg/ml
Method: (§1) Ten mg of Immune+™ was suspended in 1 ml RPMI-1640 with 10% heat inactivated fetal bovine serum (media). The suspension was shaken vigorously on a vortex mixer. The insoluble components were quickly pelleted and the remaining suspension filtered twice: first through a 0.45 micron syringe filter followed by a 0.2 micron syringe filter. This filtrate was used as our stock (approx. 10 mg/ml) from which dilutions were made for the incubations with PBMC. The stock solution was diluted in media prior to treatment with PBMC.
(§2) Volunteers of various ethnic backgrounds and ranging in age from 18-35 years, participated in this study. […] Viability was determined by trypan blue exclusion and was consistently >96%. […]
(§3) Aliquots of culture supernates were frozen immediately upon harvest and stored at −20° C. until analysis by ELISA. Concentrations of IL-1 β and IFN-γ were determined using the DuoSet® ELISA Development System (R & D Systems, Minneapolis, Minn.) with a detection limit of 3.9 and 15.6 pg/ml respectively.
(§4) The effects of various concentrations of Immune+™ on IL-1β and IFN-γ production in either unstimulated or PHA-stimulated PBMC were analyzed using a one-way ANOVA followed by post-hoc Tukey comparison. […]
(§5) The concentrations of IL-1β and IFN-γ in the supernate were measured by ELISA.

[3] = test system: peripheral blood mononuclear cells (PBMC); assay: IL-1β secretion by PBMC incubated 72 h with Immune+™ with or without PHA, ELISA (Example 2); type: cell-based, human; settings: PHA alone, 10 μg/ml
Method: as §1, §2, §3, §4, §5

Molecule | IFN-γ production [1] | IFN-γ production [2] | IL-1β production [3]
CC1(C)[C@@H](O[C@H]2O[C@H](C(=O)O)[C@@H](O)[C@H](O)[C@H]2O[C@@H]2O[C@H](C(=O)O)[C@@H](O)[C@H](O)[C@H]2O)CC[C@]2(C)[C@H]3C(=O)C=C4[C@@H]5C[C@@](C)(C(=O)O)CC[C@]5(C)CC[C@@]4(C)[C@]3(C)CC[C@@H]12 [glycyrrhizin, 20β-carboxy-11-oxo-30-norolean-12-en-3 βyl-2-O-β-D-glucopyranuronosyl-α-D-glucopyranosiduronic acid] | did not markedly alter | – | –
phytohemagglutinin [PHA] | – | resulted in a production of IFN-γ | no effect
